Measured values as given in patent US20260250318A1, “COMPOSITIONS AND METHODS FOR CROSSING THE BLOOD BRAIN BARRIER” (VOYAGER THERAPEUTICS, INC., priority 2022, published 2026).

How the values were obtained:
[1] = system: brains, heart, liver, muscle, and DRG of the NHPs; assay: Maturation of TTM-001 and TTM-002 capsids, NGS enrichment in NHP tissues; assay type: in vivo; conditions: relative to AAV9 control
Method in brief: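 Variants carry mutations within and flanking the loop IV peptide insert: positions 450–466 were triplet-randomized, while positions 449–466 received low-frequency point mutations. The combined pool went into two NHPs, and each peptide was scored by NGS enrichment ratio against AAV9.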

brain = assay: Matured TTM-001 and TTM-002 variants, NGS enrichment in mouse brain; assay type: in vivo, mice; conditions: relative to AAV9 control
[2] = NGS fold-enrichment of RNA, NHP brain
[3] = NGS fold-enrichment, DRG of NHPs
[4] = NGS fold-enrichment, NHP liver DNA
[5] = NGS fold-enrichment, NHP liver RNA
[6] = NGS fold-enrichment, NHP muscle
[7] = NGS fold-enrichment, RNA, brain of NHPs
[8] = NGS fold-enrichment, heart of NHPs
[9] = NGS fold-enrichment, liver DNA of NHPs
[10] = NGS fold-enrichment, liver RNA of NHPs
[11] = NGS fold-enrichment, muscle of NHPs
[12] = NGS fold-enrichment, brain of mice
[13] = NGS fold-enrichment, mouse brain
[14] = NGS fold-enrichment of matured AAV capsid variants, NHP brain, RNA

| Sequence | Fold Enrichment relative to AAV9, Brain (NHP) [1, 2] [fold] | Fold Enrichment relative to AAV9, DRG (NHP) [1, 3] [fold] | Fold Enrichment relative to AAV9, DRG (NHP) ([1]; NGS fold-enrichment, NHP DRG) [fold] | Fold Enrichment relative to AAV9, Heart (NHP) ([1]; NGS fold-enrichment, NHP heart) [fold] | Fold Enrichment relative to AAV9, Liver DNA (NHP) [1, 4] [fold] | Fold Enrichment relative to AAV9, Liver RNA (NHP) [1, 5] [fold] | Fold Enrichment relative to AAV9, Muscle (NHP) [1, 6] [fold] | Fold Enrichment relative to AAV9, Brain (NHP) [1, 7] [fold] | Fold Enrichment relative to AAV9, Heart (NHP) [1, 8] [fold] | Fold Enrichment relative to AAV9, Liver DNA (NHP) [1, 9] [fold] | Fold Enrichment relative to AAV9, Liver RNA (NHP) [1, 10] [fold] | Fold Enrichment relative to AAV9, Muscle (NHP) [1, 11] [fold] | Fold Enrichment relative to AAV9, Brain (Mouse) (brain; [12]) [fold] | Fold Enrichment relative to AAV9, Brain (NHP) [1, 14] [fold] | Fold Enrichment relative to AAV9, DRG (NHP) ([1]; NHP DRG) [fold] | Fold Enrichment relative to AAV9, Heart (NHP) ([1]; NHP heart) [fold] | Fold Enrichment relative to AAV9, Liver DNA (NHP) ([1]; NHP liver, DNA) [fold] | Fold Enrichment relative to AAV9, Liver RNA (NHP) ([1]; NHP liver, RNA) [fold] | Fold Enrichment relative to AAV9, Muscle (NHP) ([1]; NHP muscle) [fold] | Fold Enrichment relative to AAV9, Brain (Mouse) (brain; mouse brain) [fold] | also measured |
| --- | --- | --- | --- | --- | --- | --- | --- | --- | --- | --- | --- | --- | --- | --- | --- | --- | --- | --- | --- | --- | --- |
| KTENMSGSPHSKAQNQQT | 89.247 | 0.000 | 0.000 | 0.000 | 0.260 | 0.000 | 0.000 | 89.247 | 0.000 | 0.260 | 0.000 | 0.000 | 130.568 |  |  |  |  |  |  |  | Fold Enrichment relative to AAV9, Brain (Mouse) (brain; [13]): 130.568 fold |
| KTENTSGSPHSKAQNQQT |  | 0.000 |  |  |  |  |  | 74.061 | 0.000 | 0.730 | 0.233 | 0.218 | 96.249 |  |  |  |  |  |  |  |  |
| KTENVSGSPHSKAQNQQT | 88.506 | 0.000 | 0.000 | 0.000 | 0.112 | 0.964 | 0.000 | 88.506 | 0.000 | 0.112 | 0.964 | 0.000 | 108.591 |  |  |  |  |  |  |  | Fold Enrichment relative to AAV9, Brain (Mouse) (brain; [13]): 108.591 fold |
| KTEPMSGSPHSKAQNQQT |  |  |  |  |  |  |  |  |  |  |  |  |  | 50.960 | 0.203 | 0.000 | 0.415 | 1.816 | 0.000 | 126.322 |  |
| KTEPTSGSPHSKAQNQQT |  |  |  |  |  |  |  |  |  |  |  |  |  | 56.134 | 0.000 | 0.000 | 0.527 | 0.061 | 0.000 | 143.397 |  |
| KTEQTSGSPHSKAQNQQT |  |  |  |  |  |  |  |  |  |  |  |  |  | 56.683 | 0.000 | 0.045 | 0.430 | 0.792 | 0.000 | 59.360 |  |
| KTEQVSGSPHSKAQNQQT |  |  |  |  |  |  |  |  |  |  |  |  |  | 58.247 | 0.000 | 0.000 | 0.081 | 0.000 | 0.000 | 88.487 |  |
| KTERASGSPHSKAQNQQT | 103.669 | 0.000 | 0.000 | 0.000 | 0.070 | 0.127 | 0.000 | 103.669 | 0.000 | 0.070 | 0.127 | 0.000 | 115.550 |  |  |  |  |  |  |  | Fold Enrichment relative to AAV9, Brain (Mouse) (brain; [13]): 115.550 fold |
